Experimental data: article PMC6917776, “Discovery of a chemical probe for PRDM9” (Nature Communications, 2019)
“And” between values parts separate entries of the source, which are not always exact repeats. Equal entries are not always repeated. Where two headings read alike, the source gives them in different places.

Target: T1, PRDM9 (amino acids: 195–415) (Homo sapiens, UniProt Q9NQV7)
T1 construct: PRDM9 (amino acids: 195–415)
T1 sequence (Q9NQV7 195-415): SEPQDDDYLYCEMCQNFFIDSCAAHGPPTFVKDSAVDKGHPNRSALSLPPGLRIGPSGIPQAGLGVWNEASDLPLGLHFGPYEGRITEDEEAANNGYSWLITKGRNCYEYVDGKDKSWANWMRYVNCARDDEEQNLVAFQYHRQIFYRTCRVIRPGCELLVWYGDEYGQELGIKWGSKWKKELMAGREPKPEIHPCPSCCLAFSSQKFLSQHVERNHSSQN
Assay: PRDM9 methyltransferase activity assay (3H-SAM scintillation proximity assay)
Assay type: biochemical
Conditions: for activity at 100 µM: 100 µM compound
Method: Methyltransferase activity assays for PRDM9 (amino acids: 195–415) were performed by monitoring the incorporation of tritium-labeled methyl group from ^3H-SAM to H3 (1–25) peptide using scintillation proximity assay (SPA). The enzymatic reactions were performed at 23 °C with 30 min incubation in 20 mM Tris-HCl (pH 7.5), 5 mM DTT, 0.01% Triton X-100 and 1% DMSO containing 71 μM of SAM (5 μM of ^3H-SAM), 4 μM of biotinylated H3 (1–25) peptide and 5 nM of PRDM9. For PRDM7, reactions were performed at 23 °C with 90 min incubation in 20 mM BTP pH 9.0, 5 mM DTT, 0.01% Triton X-100 and 1% DMSO containing 900 μM of SAM (5 μM of ^3H-SAM), 4 μM of biotinylated H3 (1–25) peptide and 100 nM of enzyme. […] To stop the reactions, 10 μL of 7.5 M guanidine hydrochloride was added to 10 μL of reaction mixture, followed by 60 μL of buffer (20 mM Tris, pH 8.0), mixed, and transferred to a 384-well streptavidin coated Flash-plate. After mixing, the mixtures in Flash-plate were incubated for 2 h, and the CPM counts were measured using TopCount plate reader. All enzymatic reactions were performed in triplicate, and IC50 values were determined by fitting the data to Four Parameter Logistic equation using the GraphPad Prism software.

[1] = 0.00610352 µM compound, 0.00610352 µM
[2] = 0.00610352 µM compound, n=6 MRK-740, n=3 MRK-740-NC, read-out: PRDM9-Activity %, Average
[3] = 0.00610352 µM compound, read-out: PRDM9-Activity %, single experiments
[4] = 0.012207 µM compound, 0.012207 µM
[5] = 0.012207 µM compound, n=6 MRK-740, n=3 MRK-740-NC, read-out: PRDM9-Activity %, Average
[6] = 0.012207 µM compound, read-out: PRDM9-Activity %, single experiments
[7] = 0.0244141 µM compound, 0.0244141 µM
[8] = 0.0244141 µM compound, n=6 MRK-740, n=3 MRK-740-NC, read-out: PRDM9-Activity %, Average
[9] = 0.0244141 µM compound, read-out: PRDM9-Activity %, single experiments
[10] = 0.0488281 µM compound, 0.0488281 µM
[11] = 0.0488281 µM compound, n=6 MRK-740, n=3 MRK-740-NC, read-out: PRDM9-Activity %, Average
[12] = 0.0488281 µM compound, read-out: PRDM9-Activity %, single experiments
[13] = 0.0976562 µM compound, 0.0976562 µM
[14] = 0.0976562 µM compound, n=6 MRK-740, n=3 MRK-740-NC, read-out: PRDM9-Activity %, Average
[15] = 0.0976562 µM compound, read-out: PRDM9-Activity %, single experiments
[16] = 0.195312 µM compound, 0.195312 µM
[17] = 0.195312 µM compound, n=6 MRK-740, n=3 MRK-740-NC, read-out: PRDM9-Activity %, Average
[18] = 0.195312 µM compound, read-out: PRDM9-Activity %, single experiments
[19] = 0.390625 µM compound, 0.390625 µM
[20] = 0.390625 µM compound, n=6 MRK-740, n=3 MRK-740-NC, read-out: PRDM9-Activity %, Average
[21] = 0.390625 µM compound, read-out: PRDM9-Activity %, single experiments
[22] = 0.78125 µM compound, 0.78125 µM
[23] = 0.78125 µM compound, n=6 MRK-740, n=3 MRK-740-NC, read-out: PRDM9-Activity %, Average
[24] = 0.78125 µM compound, read-out: PRDM9-Activity %, single experiments
[25] = 1.5625 µM compound, n=6 MRK-740, n=3 MRK-740-NC, read-out: PRDM9-Activity %, Average
[26] = 1.5625 µM compound, read-out: PRDM9-Activity %, single experiments
[27] = 3.125 µM compound, n=6 MRK-740, n=3 MRK-740-NC, read-out: PRDM9-Activity %, Average
[28] = 3.125 µM compound, read-out: PRDM9-Activity %, single experiments
[29] = 6.25 µM compound, n=6 MRK-740, n=3 MRK-740-NC, read-out: PRDM9-Activity %, Average
[30] = 6.25 µM compound, read-out: PRDM9-Activity %, single experiments
[31] = 12.5 µM compound, n=6 MRK-740, n=3 MRK-740-NC, read-out: PRDM9-Activity %, Average
[32] = 12.5 µM compound, read-out: PRDM9-Activity %, single experiments
[33] = 25 µM compound, n=6 MRK-740, n=3 MRK-740-NC, read-out: PRDM9-Activity %, Average
[34] = 50 µM compound, n=6 MRK-740, n=3 MRK-740-NC, read-out: PRDM9-Activity %, Average

With COc1cc(OC)cc(-c2noc(N3CCN(C)C4(CCN(c5ccnc(C)c5)CC4)C3)n2)c1 [MRK-740] the “PRDM9-Activity %, single experiments” value (0.00305176 µM compound, 0.00305176 µM) was 94.4267% and 95.25% and 97.1828% and 103.784% and 103.017%, the activity at 0.00305176 µM (0.00305176 µM compound, n=6, read-out: PRDM9-Activity %, Average) was 97.6% and the activity at 0.00305176 µM (0.00305176 µM compound, read-out: PRDM9-Activity %, single experiments) was 91.9%. The “PRDM9-Activity %, single experiments” value [1] was 85.0663% and 85.348% and 95.7626% and 97.3747% and 91.3487%, the activity at 0.00610352 µM [2] was 90% and the activity at 0.00610352 µM [3] was 84.8%. For the same molecule, the “PRDM9-Activity %, single experiments” value [4] was 78.4578% and 80.6028% and 86.1288% and 97.1828% and 87.357%, the activity at 0.012207 µM [5] was 84.8% and the activity at 0.012207 µM [6] was 79.3%. The “PRDM9-Activity %, single experiments” value [7] was 75.966% and 79.6061% and 75.3435% and 72.6952% and 77.5697%, the activity at 0.0244141 µM [8] was 75.8% and the activity at 0.0244141 µM [9] was 73.4%. For the same molecule, the “PRDM9-Activity %, single experiments” value [10] was 59.9538% and 62.5322% and 63.7138% and 61.8331% and 62.9462%, the activity at 0.0488281 µM [11] was 62.6% and the activity at 0.0488281 µM [12] was 64.9%. For the same molecule, the “PRDM9-Activity %, single experiments” value [13] was 47.0617% and 46.4983% and 51.163% and 50.5105% and 50.3953%, the activity at 0.0976562 µM [14] was 49% and the activity at 0.0976562 µM [15] was 48.6%. The “PRDM9-Activity %, single experiments” value [16] was 35.2529% and 35.7729% and 39.7252% and 37.4223% and 38.9192%, the activity at 0.195312 µM [17] was 36.7% and the activity at 0.195312 µM [18] was 33%. The “PRDM9-Activity %, single experiments” value [19] was 22.6425% and 27.2793% and 26.6754% and 26.8289% and 30.4368%, the activity at 0.390625 µM [20] was 26.6% and the activity at 0.390625 µM [21] was 25.4%. The “PRDM9-Activity %, single experiments” value [22] was 15.1455% and 15.3839% and 20.1505% and 16.3507% and 20.304%, the activity at 0.78125 µM [23] was 17.5% and the activity at 0.78125 µM [24] was 17.8%. For the same molecule, the “PRDM9-Activity %, single experiments” value (1.5625 µM compound, 1.5625 µM) was 9.274% and 10.0537% and 12.7044% and 15.0841% and 15.1608%, the activity at 1.5625 µM [25] was 12% and the activity at 1.5625 µM [26] was 9.56%. For the same molecule, the “PRDM9-Activity %, single experiments” value (3.125 µM compound, 3.125 µM) was 7.757% and 8.32% and 10.555% and 9.672% and 9.096%, the activity at 3.125 µM [27] was 8.8% and the activity at 3.125 µM [28] was 7.39%. For the same molecule, the “PRDM9-Activity %, single experiments” value (6.25 µM compound, 6.25 µM) was 4.5935% and 6.024% and 7.753% and 9.173% and 6.448%, the activity at 6.25 µM [29] was 6.57% and the activity at 6.25 µM [30] was 5.42%. For the same molecule, the “PRDM9-Activity %, single experiments” value (12.5 µM compound, 12.5 µM) was 3.185% and 3.8568% and 5.834% and 4.491% and 4.606%, the activity at 12.5 µM [31] was 4.37% and the activity at 12.5 µM [32] was 4.27%. The “PRDM9-Activity %, single experiments” value (25 µM compound, 25 µM) was 2.7301% and 2.167% and 2.752% and 4.337% and 5.373% and 4.529%, the activity at 25 µM [33] was 3.65% and the “PRDM9-Activity %, single experiments” value (50 µM compound, 50 µM) was 2.405% and 1.7984% and 3.488% and 4.913% and 5.45% and 4.529%. For the same molecule, the activity at 50 µM [34] was 3.76%, the Activity % (PRDM9, 1µM compound, Exp1, Exp2, 1 µM) was 11% and the activity at 1 µM (PRDM9, 1µM compound, Exp1, Exp2, read-out: Activity %) was 10%. The Activity % (PRDM9, 10µM compound, Exp1, Exp2, 10 µM) was 2.5%, the activity at 10 µM (PRDM9, 10µM compound, Exp1, Exp2, read-out: Activity %) was 3% and the IC50 (biotinylated H3 (1–25) peptide, balanced conditions, mean ± standard deviation) was 0.08 ± 0.016 µM.

COc1cc(OC)cc(-c2noc(N3CCN(C)C4(CCN(c5ccccc5)CC4)C3)n2)c1 [MRK-740-NC] was tested, and the “PRDM9 inhibition (in words)” value was “inactive control compound”, the “PRDM9-Activity %, single experiments” value [1] was 111.779% and 111.39% and the activity at 0.00610352 µM [2] was 110%. The activity at 0.00610352 µM [3] was 108%, the “PRDM9-Activity %, single experiments” value [4] was 116.346% and 113.283% and the activity at 0.012207 µM [5] was 115%. For the same molecule, the activity at 0.012207 µM [6] was 116%, the “PRDM9-Activity %, single experiments” value [7] was 104.873% and 111.39% and the activity at 0.0244141 µM [8] was 111%. For the same molecule, the activity at 0.0244141 µM [9] was 116%, the “PRDM9-Activity %, single experiments” value [10] was 125.258% and 118.268% and the activity at 0.0488281 µM [11] was 122%. For the same molecule, the activity at 0.0488281 µM [12] was 121%, the “PRDM9-Activity %, single experiments” value [13] was 107.407% and 111.807% and the activity at 0.0976562 µM [14] was 109%. The activity at 0.0976562 µM [15] was 108%, the “PRDM9-Activity %, single experiments” value [16] was 118.212% and 116.151% and the activity at 0.195312 µM [17] was 119%. The activity at 0.195312 µM [18] was 122%, the “PRDM9-Activity %, single experiments” value [19] was 107.574% and 115.149% and the activity at 0.390625 µM [20] was 111%. For the same molecule, the activity at 0.390625 µM [21] was 112%, the “PRDM9-Activity %, single experiments” value [22] was 116.708% and 121.749% and the activity at 0.78125 µM [23] was 119%. For the same molecule, the activity at 0.78125 µM [24] was 120%, the “PRDM9-Activity %, single experiments” value (1.5625 µM compound, 1.5625 µM) was 114.731% and 115.595% and the activity at 1.5625 µM [25] was 116%. The activity at 1.5625 µM [26] was 117%, the “PRDM9-Activity %, single experiments” value (3.125 µM compound, 3.125 µM) was 124.004% and 125.898% and the activity at 3.125 µM [27] was 123%. The activity at 3.125 µM [28] was 120%, the “PRDM9-Activity %, single experiments” value (6.25 µM compound, 6.25 µM) was 105.486% and 104.623% and the activity at 6.25 µM [29] was 105%. The activity at 6.25 µM [30] was 105%, the “PRDM9-Activity %, single experiments” value (12.5 µM compound, 12.5 µM) was 112.476% and 115.762% and the activity at 12.5 µM [31] was 114%. The activity at 12.5 µM [32] was 114%, the “PRDM9-Activity %, single experiments” value (25 µM compound, 25 µM) was 98.6355% and 87.9699% and the activity at 25 µM [33] was 94.3%. The activity at 25 µM (25 µM compound, read-out: PRDM9-Activity %, single experiments) was 96.2%, the “PRDM9-Activity %, single experiments” value (50 µM compound, 50 µM) was 103.397% and 100.975% and the activity at 50 µM [34] was 102%. It also gave an activity at 50 µM (50 µM compound, read-out: PRDM9-Activity %, single experiments) of 101%, an activity at 100 µM (n=3, read-out: PRDM9-Activity %, Average) of 80.5% and an activity at 100 µM (read-out: PRDM9-Activity %, single experiments) of 82.7%.
